Measurements: patent EP1982730A1, “Pharmaceutical composition comprising l-carnitine and an antagonist of the membrane adenosine receptors, derivatives and/or pharmaceutically acceptable salts thereof, and their use in the preparation of drugs with non-toxic effect to inhibit the proliferation of neoplastic cells” (Farmacetika Limited, priority 2007, dated 2008)

Key:
[1] = tested on: human peripheral blood mononuclear cells (PBMCs) in healthy volunteers; details: lymphocytes from healthy volunteers stimulated with PHA; cited from earlier work
[2] = tested on: peripheral blood mononuclear cells (PBMC) from patients affected by chronic lymphocytic leukemia; assay: PHA-induced cell blast formation / proliferation (BrdU incorporation ELISA) in ex vivo PBMC cultures; format: cell-based, human; details: for % reduction in cell blast formation: PBMC stimulated with PHA 20 ug/mL
Source text: The protocol for isolation and treatment of cells from patients affected by chronic lymphocytic leukemia comprised the following steps:
• Blood sample taken between 8:00 and 9:30 a.m.; • Blood sample sent to the laboratory to be processed immediately; • Evaluation of the total volume of the blood received to proceed with 1:2 dilution with sterile saline solution; • Isolation of the mononuclear cells performed by layering of the blood on a Ficoll-Paque Plus density gradient at a ratio of 1:3, ensuring that the two phases remain separate; • Centrifugation for 40 minutes at 1800 rpm at room temperature; • Recovery of the PBMC layers in the interface between the Ficoll and the plasma; • Washing in saline solution to eliminate residual Ficoll centrifuging at 1200 rpm for 7 minutes at 4°C; • Washing in RPM1 1640 medium, centrifuging at 1200 rpm for 7 minutes at 4°C; • Pellet suspension in complete medium, i.e. RPM1 1640 with the addition of L-glutamine 4mM, penicillin at 50U/ml, streptomycin […] and with 10% of FBS (fetal bovine serum); • Preparation of a 10% cell suspension with Trypan Blue dye and counting of cells under the microscope with Burker camera; cell vitality is also checked using the dye exclusion test; • Counting of the total number of cells and adjustment of the cell concentration to the required value.
The cells thus isolated were cultured in the complete culture medium, and a culture was prepared placing 1 mL of cell suspension in a 5 mL polypropylene […] (Falcon) to study cytokine expression and production, and 100 microL in each microplate well. To induce cell blast formation, mitogen phytohemagglutinin (PHA) (20 ug/mL (Pharmacia) selective for T-lymphocytes was added.
The control culture was prepared without adding any mitogenic substance.
The substance to be tested, i.e. L-carnitine and L-carnitine + suramin, at the desired concentration, was added both to cultures with and to those without mitogen. The cultures were incubated in an incubator at 37°C, in a humidified environment with 5% carbon dioxide added.
Evaluation of cell proliferation and therefore of DNA synthesis by isolated and cultured PBMC was performed after stimulation with mitogen and using the Biotrak ELISA system (Amersham Biosciences Europe GmbH, Milan, Italy), based on the measure of incorporation of 5-bromo-2-deoxyuridine (BrdU), pyrimidine analog, into the newly synthesized DNA. 18 hours before the end of incubation 10 microl of culture medium containing BrdU at a final concentration of 10 micromol/L were added to the cultures. At the end of incubation the culture medium was removed by centrifuging the plates at 300 rpm for 10 minutes. Subsequently, the plates were kept in an oven at 60°C for one hour. This was followed by two incubations of 30 minutes each, first in the presence of a fixative required for cell fixation and DNA denaturation, then in the presence of a blocking buffer. After addition of the anti-BrdU antibody, combined with the enzyme peroxidase, the plates were incubated for 90 minutes, after which three washes of 5 minutes each were performed, using PBS. The substrate used for the colorimetric reaction consisted of 3,3',5,5'-tetramethylbenzidine. The reaction was blocked after 15 minutes with H2SO4 1M and the optical density was measured at a wavelength of 450 nanometers, using a plate reader spectrophotometer. The PBMC proliferation values in the different wells were expressed as optical density from which the optical density recorded in the control wells without BrdU was subtracted.

Question: Which results are given for C[N+](C)(C)C[C@H](O)CC(=O)[O-] [Carnitine, L-carnitine]?
Answer: blastogenesis of T lymphocytes caused by phytohemagglutinin (PHA) [1]: inhibits, in a dose-dependent manner; % reduction in cell blast formation ([2]; Patient 1, I.S. 1.9): 30%; % reduction in cell blast formation ([2]; Patient 2, I.S. 3.4): 65%; % reduction in cell blast formation ([2]; Patient 3, I.S. 4.4): 40%; % reduction in cell blast formation ([2]; Patient 4, I.S. 1.6): 24.4%; % reduction in cell blast formation ([2]; Patient 5, I.S. 2.3): 16.5%; proliferation induced with PHA ([2]; all patients, summary in words): reduces the proliferation induced with PHA in all patients
